In brackets after ≈: the same amount, converted by molar mass. Like-named read-outs stand apart in the source and are kept apart here.
How the values were obtained:
[1] = target: T1, 1000001: Carboxy-terminus phosphatase domain of protein tyrosine phosphatase (2NV5) (Mus musculus, UniProt Q64487); experiment: Thermal shift (thermal melt) assay, Sypro orange; format: binding, M. musculus; parameters: key to Q (quality score): Q = ΔFmelt/ΔFtotal; 1 = high-quality curve, 0 = no transition; details: for Q (quality score): ratio ΔFmelt/ΔFtotal
T1 construct: The C-terminal phosphatase domain from R. norvegicus (PDB ID: 2NV5) (1000001); New York structural genomics consortium (gift)
T1 sequence (Q64487 1331-1621): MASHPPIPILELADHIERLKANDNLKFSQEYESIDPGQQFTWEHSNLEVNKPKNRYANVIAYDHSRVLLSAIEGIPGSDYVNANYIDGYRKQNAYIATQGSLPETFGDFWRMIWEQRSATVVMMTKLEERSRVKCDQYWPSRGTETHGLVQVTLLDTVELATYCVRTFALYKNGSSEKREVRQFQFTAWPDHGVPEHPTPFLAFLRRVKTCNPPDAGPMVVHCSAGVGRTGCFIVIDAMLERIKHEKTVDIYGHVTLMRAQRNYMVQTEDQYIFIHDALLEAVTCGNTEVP
Experimental: (§1) High throughput thermal shift assays were carried out following established guidelines (Additional file 1: Table S1). Protein melting curves were obtained from samples aliquoted in 96-well plates using a RealPlex quantitative PCR instrument from Eppendorf (Eppendorf, NY, USA), with Sypro orange dye from Invitrogen as the fluorescent probe. A uniform final concentration of 5 X (supplied as a 5000 X stock solution) was used in all experiments. The dye was excited at 465 nm and emission recorded at 580 nm using the instrument’s filters. A heating ramp of 1°C/min from 25°C to 74°C was used, and one data point acquired for each degree increment. For standardization, different buffers and pH were checked. Thereafter, 100 mM HEPES pH 7.3 and 150 mM NaCl were used in all unfolding experiments. The volume of each reaction was 20 μl, and appropriate dye and protein controls were included. All experiments were done with a minimum of two replicates, with the mean value considered for further analysis. Several drugs/small molecules interact with Sypro orange and lead to aberrant signal enhancements. An additional control to rule out drug-dye interaction was carried out with all the constituents kept constant except for the protein of interest. The protein/protein-drug curves were reported after subtracting the respective dye alone/drug-dye curves.
(§2) Each melting curve was assigned a quality score (Q), the ratio of the melting-associated increase in fluorescence (ΔFmelt) to the total fluorescence range (ΔFtotal). Q = 1 is a high-quality curve, while Q = 0 indicates no thermal transition. Though an arbitrary Q value cutoff was not applied to judge curve quality, the curves were manually curated with Q values reported. […] These were ignored (see Table 1).
(§3) Subsequent to standardization, (see SI Methods), the validity of the top 1% of […]^comb’s predictions on the test set of eight diverse proteins was examined. To be conservative, we focused only on those protein/ligand pairs showing single sigmoidal thermal transition curves. The fit to Boltzmann’s equation (Eq. 1) was employed to estimate the melting temperature from the observed intensity, I.
(§4) (4) I=Imin+Imax-Imin/1+e^Tm-T/a
(§5) Imin and Imax are the minimum and maximum intensities; a denotes the slope of the curve at the transition midpoint temperate, Tm. To estimate thermodynamic parameters, both van’t Hoff and Gibbs-Helmholtz analyses were done. To estimate the approximate ligand-binding affinity at Tm, Eq. (2) from reference was used with slight modifications; ΔCp is ignored.
(§6) (5) KLTm=exp-ΔH/R1/Tm-1/To/L
(§7) KL(Tm) is the ligand association constant and [L] is the free ligand concentration at Tm ([LTm] ~ [L]total, when [L]total > > the total concentration of protein. KD is the inverse of KL(Tm).
(§8) Thermal unfolding of the eight benchmark proteins was carried out in a 20 μl reaction mix with 100 mM HEPES pH 7.3, 150 mM NaCl, 5 X Sypro orange dye, 10 μM protein and 1 mM of all the predicted ligands.

[2] = target: T2, 1000006: catalytic domain of protein tyrosine phosphatase (2G59) (Homo sapiens, UniProt Q16827); experiment: Thermal shift (thermal melt) assay, Sypro orange; format: binding, H. sapiens; details: for Q (quality score): ratio ΔFmelt/ΔFtotal
T2 construct: the catalytic domain of PTP from H. sapiens (PDB ID: 2G59) (1000006); New York structural genomics consortium (gift)
T2 sequence (Q16827 938-1195 limits assumed): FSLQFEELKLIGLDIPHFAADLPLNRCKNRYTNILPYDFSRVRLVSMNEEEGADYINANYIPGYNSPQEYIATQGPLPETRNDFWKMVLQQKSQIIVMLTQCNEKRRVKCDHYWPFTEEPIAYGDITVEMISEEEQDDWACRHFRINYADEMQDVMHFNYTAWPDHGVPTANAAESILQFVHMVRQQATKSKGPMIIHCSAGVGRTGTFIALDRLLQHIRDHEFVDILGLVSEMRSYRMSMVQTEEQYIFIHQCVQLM
Experimental: as §1, §2, §3, §4, §5, §6, §7, §8

[3] = test system: HCT-116 colon carcinoma cell line; experiment: Cytotoxic assay on cancer cell line; format: cell-based; details: for IC50: Homo sapiens, HCT-116, inhibitory concentration for 50% growth inhibition, read-out: HCT-116 (IC-50)
Experimental: Antimicrobial and anti-cancer tests were performed as in [80].

[4] = target: E. coli dihydrofolate reductase (DHFR) (Escherichia coli, UniProt P0ABQ4); experiment: biochemical; format: binding; details: for Q (quality score): ratio ΔFmelt/ΔFtotal of the melting curve; for ΔTm: thermal shift, in °C (unit assumed)
Sequence of E. coli dihydrofolate reductase (DHFR) (P0ABQ4 whole entry): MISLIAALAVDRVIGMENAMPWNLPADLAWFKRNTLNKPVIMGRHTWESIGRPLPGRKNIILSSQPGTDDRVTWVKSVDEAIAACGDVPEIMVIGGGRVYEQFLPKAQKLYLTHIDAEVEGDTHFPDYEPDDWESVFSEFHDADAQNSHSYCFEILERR
Experimental: as §1, with “The dye was excited at 465 nm and emission recorded at 580 nm using the instrument’s filters. A heating ramp of 1°C/min from 25°C to 74°C was used, and one data point acquired for each degree increment.” left out
Each melting curve was assigned a quality score (Q), the ratio of the melting-associated increase in fluorescence (ΔFmelt) to the total fluorescence range (ΔFtotal). Q = 1 is a high-quality curve, while Q = 0 indicates no thermal transition. Though an arbitrary Q value cutoff was not applied to judge curve quality, the curves were manually curated with Q values reported.
as §3, §4, §5, §6, §7, §8

[5] = Table S4, protein 1000001, computed from the thermal shifts obtained, read-out: KD (Approx)
[6] = Table S4, protein 1000001, in °C (unit assumed)
[7] = Table S6, 1000001, known binders of 1000001, in °C (unit assumed)
[8] = Table S6, known binders of 1000001 tested on 1000006, in °C (unit assumed)
[9] = Table S4, protein 1000006, computed from the thermal shifts obtained, read-out: KD (Approx)
[10] = Table S4, protein 1000006, in °C (unit assumed)
[11] = Table S3, computed from the thermal shifts obtained, read-out: KD (Approx)
[12] = approximate, computed from the thermal shift, read-out: KD
[13] = inhibitory concentration for 50% growth inhibition

SMILES | Kd [1, 5] [µM] | ΔTm [1, 6] | Q (quality score) ([1]; Table S4, protein 1000001) | ΔTm [1, 7] | ΔTm [2, 8] | Q (quality score) ([4]; Table S3) | also measured
Nc1cc(-c2ccccc2)ccc1O [NSC 7950] |  |  |  |  |  |  | Kd [2, 9]: ~271 µM; ΔTm [2, 10]: 1.22; Q (quality score) ([2]; Table S4, protein 1000006): 0.3
COc1cc(C(=O)C(=O)c2ccc(O)c(OC)c2)ccc1O [NSC 16722] |  |  |  |  |  |  | Kd [2, 9]: ~107 µM; ΔTm [2, 10]: 3.09; Q (quality score) ([2]; Table S4, protein 1000006): 0.4
Cc1ccc(N=Nc2ccc(N)cc2C)c(S(N)(=O)=O)c1 [NSC 45527] | ~0.567 | 11.7 | 0.04 | 11.79 | 5.48 |  | 
O=C(Nc1ccc(Oc2ccc(NC(=O)Nc3ccc([N+](=O)[O-])cc3)cc2)cc1)Nc1ccc([N+](=O)[O-])cc1 [NSC 80735] |  |  |  |  |  | 0.3 | Kd [4, 11]: ~1.71 µM; ΔTm ([4]; Table S3): 18.16; Kd [4, 12]: 1.7 µM; HCT-116 (IC-50) ([3]; Table S3): 10.9; IC50 against HCT-116 ([3]; as worded): 10.9 mg/L (≈ 20.6 µM)
Nc1cc([N+](=O)[O-])ccc1Nc1ccc(O)cc1 [NSC 92794] |  |  |  |  |  |  | HCT-116 (IC-50) ([3]; inhibitory concentration for 50% growth inhibition, listed as 92794): 9.78 µg/mL; HCT-116 (IC-50) ([3]; inhibitory concentration for 50% growth inhibition, listed as NSC92794): 9.8 µg/mL; Kd [2, 9]: ~162 µM; ΔTm [2, 10]: 2.26; Q (quality score) ([2]; Table S4, protein 1000006): 0.004; Kd [2, 12]: 162 µM
C1=Cc2ccccc2Nc2ccccc21 [NSC 123458] |  |  |  |  |  | 0.6 | Kd [4, 11]: ~5.64 µM; ΔTm ([4]; Table S3): 14.17
COc1cc(NCc2ccccc2O)c2ncccc2c1 [NSC 130801] |  |  |  |  |  | 1.1 | Kd [4, 11]: ~75 µM; ΔTm ([4]; Table S3): 5.84
Nc1ccc(Oc2ccc(N)c([N+](=O)[O-])c2)cc1[N+](=O)[O-] [NSC 133351] |  |  |  |  |  |  | Kd [2, 9]: ~0.168 µM; Q (quality score) ([2]; Table S4, protein 1000006): 0.1; Kd ([2]; approximate, computed from the thermal shift, listed as 133351, read-out: KD): 0.168 µM; Kd ([2]; approximate, computed from the thermal shift, listed as NSC133351, read-out: KD): ~0.168 µM; ΔTm ([2]; thermal shift, 1 mM ligand, 10 μM protein): 16.76 °C
O=C(O)Cc1ccc(N=Nc2c(O)c(C(=O)O)cc3ccccc23)cc1 [NSC 156563] | ~1.32 | 10.2 | 0.004 | 10.66 | 5.36 |  | 
CC(C)=C(c1ccc(Cl)cc1)c1c(N)ncnc1N [NSC 157522] |  |  |  |  |  | 0.4 | Kd [4, 11]: ~19.5 µM; ΔTm ([4]; Table S3): 10.13
O=C(Nc1ccc(C(=O)O)c(O)c1)c1ccccc1 [NSC 159686] |  |  |  |  |  | 0.6 | Kd [4]: ~12.7 µM
CCCCC(=O)OCC(=O)[C@]1(O)Cc2c(O)c3c(c(O)c2[C@@H](O[C@H]2C[C@H](NC(=O)C(F)(F)F)[C@H](O)[C@H](C)O2)C1)C(=O)c1c(OC)cccc1C3=O [NSC 246131, valrubicin, reference compound] | ~1.47 | 9.99 | 0.2 | 10.31 | 5.62 |  | Kd [1, 12]: ~1.5 µM; IC50 [3]: 0.024 mg/L (≈ 0.0332 µM)
N/C(CC(=O)Nc1cc(C(F)(F)F)ccc1Cl)=N\O [NSC 379536] |  |  |  |  |  | 0.3 | Kd [4, 11]: ~28.9 µM; ΔTm ([4]; Table S3): 8.86
Nc1nc2[nH]cc(CCc3ccc(C(=O)N[C@@H](CCC(=O)O)C(=O)O)cc3)c2c(=O)[nH]1 [NSC 698037, pemetrexed, reference compound] |  |  |  |  |  | 1.3 | 
C#CCC(Cc1cnc2nc(N)nc(N)c2n1)c1ccc(C(=O)N[C@@H](CCC(=O)O)C(=O)O)cc1 (stereo partly shown) [NSC 754230, pralatrexate, reference compound] |  |  |  |  |  | 0.1 | Kd [4, 11]: ~0.499 µM; IC50 [3]: < 0.031 mg/L

Continued, in another order:

Kd [1, 5] [µM] | ΔTm [1, 6] | Q (quality score) ([1]; Table S4, protein 1000001) | ΔTm [1, 7] | ΔTm [2, 8] | SMILES | Q (quality score) ([4]; Table S3) | also measured
~43.8 | 4.1 | 0.5 | 4.23 | 0 | O=S(=O)(O)c1ccc(N=Nc2ccccc2)cc1 [NSC 1847] |  | 
~6.85 | 7.3 | 0.01 | 9.91 |  | CCOc1ccc(Nc2c3ccccc3nc3ccccc23)cc1 [NSC 30205] |  | HCT-116 (IC-50) ([3]; inhibitory concentration for 50% growth inhibition, listed as 30205): 0.146 µg/mL; HCT-116 (IC-50) ([3]; inhibitory concentration for 50% growth inhibition, listed as NSC30205): 0.15 µg/mL; ΔTm ([2]; Table S6, known binders of 1000001 tested on 1000006): Ambiguous
~6.47 | 7.4 | 1.1 | 7.34 | 0 | O=C(O)c1cc(O)ccc1N=Nc1ccccc1 [NSC 106863] |  | HCT-116 (IC-50) [3, 13]: 14.5 µg/mL
~0.709 | 11.3 | 0.007 |  | 29.52 | CC(=O)c1cc(O)c2ccccc2c1O [NSC 111552] |  | HCT-116 (IC-50) [3, 13]: 2.2 µg/mL
~0.406 |  | 0.01 | 11.33 | 1.36 | NS(=O)(=O)c1ccc(N=Nc2c(O)c(C(=O)O)cc3ccccc23)cc1 [NSC 134137] |  | Kd ([1]; approximate, computed from the thermal shift, listed as 134137, read-out: KD): 0.406 µM; Kd ([1]; approximate, computed from the thermal shift, listed as NSC134137, read-out: KD): ~0.406 µM; ΔTm ([1]; thermal shift, 1 mM ligand, 10 μM protein, listed as 134137): 12.30 °C; ΔTm ([1]; thermal shift, 1 mM ligand, 10 μM protein, listed as NSC134137): ~ 12 °C
~2.19 | 9.3 | 0.1 | 9.70 | 5.48 | COc1cc(N=Nc2ccccc2C(=O)O)ccc1O [NSC 153172] |  | 

— PMC4038399, “Experimental validation of [sequence]^comb virtual ligand screening results for eight proteins yields novel nanomolar and micromolar binders” (Journal of Cheminformatics, 2014)
